Measured values from patent US20260001914A1, “MACROCYCLIC PEPTIDES TARGETING KRAS” (Merck Sharp & Dohme LLC, priority 2022, published 2026).
*1 amine or outer side, *2 acyl side, *3 side chain or, on linkers, in order; H or OH if unused. Where a SMILES comes first, the peptide text is derived from it. Bridges are numbered along the chain shown (N, C = ends). [ ]: non-standard residue; d: D form. cBu(1-CO,cis-3-CH2NH) = O=C([C@H]1C[C@@H](CN[*:1])C1)[*:2]; Phe(4-guanidino) = N=C(N)Nc1ccc(C[C@H](N)C(=O)O)cc1; X18 = CNC(=N)N(C)c1ccc(C[C@H](N[*:1])C(=O)[*:2])cc1; X22 = CNC(=N)N(C)CCC[C@@H](C(=O)[*:2])N(C)[*:1]; X49 = O=C(O)Cc1cccc(C[C@H](N[*:1])C(=O)[*:2])c1; Ala(pyrimidin-5-yl) = N[C@@H](Cc1cncnc1)C(=O)O; NMe3Pal(6-Me) = CN[C@@H](Cc1ccc(C)nc1)C(=O)O; Ala(thiazol-2-yl) = N[C@@H](Cc1nccs1)C(=O)O; X3 = CN([C@@H](Cc1cncnc1)C(=O)[*:2])[*:1]; Phe(4-Cl) = N[C@@H](Cc1ccc(Cl)cc1)C(=O)O; X57 = Cn1ccc(C[C@H](N[*:1])C(=O)[*:2])n1; Phe(4-F) = N[C@@H](Cc1ccc(F)cc1)C(=O)O; Phe(4-Me) = Cc1ccc(C[C@H](N)C(=O)O)cc1; 1Nal = N[C@@H](Cc1cccc2ccccc12)C(=O)O; NHCH2CH2SCH2CO = O=C(CSCCN[*:1])[*:2]; X47 = O=C([C@H](Cc1ccoc1)N[*:1])[*:2]; Phe(2-F) = N[C@@H](Cc1ccccc1F)C(=O)O; NMe3Pal = CN[C@@H](Cc1cccnc1)C(=O)O; X1 = O=C(C12CC(CN[*:1])(C1)C2)[*:2]; X12 = CC(=O)NCCCN(CC(=O)[*:2])[*:1]; NMeAad = CN[C@@H](CCCC(=O)O)C(=O)O; X17 = O=C([C@H](CCCCF)N[*:1])[*:2]; Aha = [N-]=[N+]=NCC[C@H](N)C(=O)O; NMeOrn(Me) = CNCCC[C@H](NC)C(=O)O; NMeF = CN[C@@H](Cc1ccccc1)C(=O)O; PhLac = O=C(O)[C@@H](O)Cc1ccccc1; X79 = O=C(C1CCC(N[*:1])CC1)[*:2]; 3Pal = N[C@@H](Cc1cccnc1)C(=O)O; 4Pal = N[C@@H](Cc1ccncc1)C(=O)O; Ahp(2) = CCCCC[C@H](N)C(=O)O; Cba = N[C@@H](CC1CCC1)C(=O)O; NMeNle = CCCC[C@H](NC)C(=O)O; hSer = N[C@@H](CCO)C(=O)O; αMeC = C[C@](N)(CS)C(=O)O; NMeA = CN[C@@H](C)C(=O)O; Nle = CCCC[C@H](N)C(=O)O; Nva = CCC[C@H](N)C(=O)O

Target: KRAS-G12D protein (Homo sapiens, UniProt P01116, G12D)
Sequence (P01116 1-188 isoform P01116-2 G12D): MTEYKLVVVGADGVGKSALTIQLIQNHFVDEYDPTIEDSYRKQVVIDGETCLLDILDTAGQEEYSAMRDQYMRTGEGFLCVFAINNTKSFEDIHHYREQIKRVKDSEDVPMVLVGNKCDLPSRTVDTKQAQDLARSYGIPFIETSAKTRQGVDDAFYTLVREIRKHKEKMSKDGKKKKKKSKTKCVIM
Test: SOS-mediated nucleotide exchange assay (BODIPY-GDP / Tb-streptavidin TR-FRET)
Assay type: biochemical

Row | Compound | EC50 [nM]
1 | CCCC[C@@H]1NC(=O)[C@H](Cc2ccc(O)cc2)NC(=O)[C@H](CCOC)NC(=O)[C@H](Cc2ccc(O)cc2)NC(=O)[C@H](CCCNC(=N)N)NC(=O)[C@H](Cc2ccccc2)NC(=O)CSCCNC(=O)[C@H](Cc2ccccc2)N(C)C1=O [compound 77, cyclo(F-R-Y-hSOMe-Y-Nle-NMeF-Cysteamine-ClAc)] (cyclo(FRY[hSer](Me)Y[Nle][NMeF][NHCH2CH2SCH2CO])) | 2850
2 | CCCCC[C@@H]1NC(=O)[C@H](Cc2ccc(OC)cc2)NC(=O)[C@H](CC2CCC2)NC(=O)[C@H](Cc2cccnc2)NC(=O)[C@H](CCCNC(=N)N)NC(=O)[C@H](Cc2ccccc2)NC(=O)CSC[C@@](C)(C(N)=O)NC(=O)[C@H](Cc2cncnc2)N(C)C1=O [compound 376, cyclo(F-R-3Pal-cBuA-TyrOMe-Ahp-NMeAlaPyrim-aMeCl-ClAc)] ({CH2CO}-FR[3Pal][Cba]Y(Me)[Ahp(2)][X3][αMeC]-NH2; thioether N-8) | 26.6
3 | CCCC[C@@H]1NC(=O)[C@H](Cc2ccc(O)cc2)NC(=O)[C@H](CC2CCCCC2)NC(=O)[C@H](CCCCN)NC(=O)[C@H](CCCNC(=N)N)NC(=O)[C@H](Cc2cccc3ccccc23)NC(=O)CSC[C@H](C(N)=O)NC(=O)[C@H](Cc2ccccc2)N(C)C1=O [compound 139, cyclo(INal-R-K-Cha-Y-Nle-NMeF-dCl-ClAc)] | 5990
4 | CCCCC[C@@H]1NC(=O)[C@H](Cc2ccc(OC)cc2)NC(=O)[C@H](CC2CCC2)NC(=O)[C@H](Cc2ccc(N(C)C(=N)NC)cc2)NC(=O)[C@H](CCCNC)N(C)C(=O)[C@H](Cc2ccccc2)NC(=O)CSC[C@@](C)(C(N)=O)NC(=O)[C@H](Cc2ccc(C)nc2)N(C)C1=O [compound 395, cyclo(F-NMeOmMe-Phe4GnMeMe-cBuA-TyrOMe-Ahp-NMe3Pal4Me-aMeCl-ClAc)] ({CH2CO}-F[NMeOrn(Me)][X18][Cba]Y(Me)[Ahp(2)][NMe3Pal(6-Me)][αMeC]-NH2; thioether N-8) | 16
5 | CCCCC[C@@H]1NC(=O)[C@H](Cc2ccoc2)NC(=O)[C@H](CC2CCC2)NC(=O)[C@H](Cc2cccnc2)NC(=O)[C@H](CCCNC(=N)N)NC(=O)[C@H](Cc2ccccc2)NC(=O)CSC[C@@](C)(C(N)=O)NC(=O)[C@H](Cc2ccccc2)N(C)C1=O [compound 374, cyclo(F-R-3Pal-cBuA-Ala3Fur-Ahp-NMeF-aMeCl-ClAc)] ({CH2CO}-FR[3Pal][Cba][X47][Ahp(2)][NMeF][αMeC]-NH2; thioether N-8) | 69.8
6 | CCCC[C@@H]1NC(=O)[C@H](Cc2cccnc2)NC(=O)[C@H](C)N(C)C(=O)[C@H](Cc2ccc(C)cc2)NC(=O)C23CC(CNC(=O)[C@H](Cc4cccnc4)N(C)C(=O)[C@H](CCCC)NC(=O)[C@H](Cc4ccccc4F)NC1=O)(C2)C3 [compound 170, cyclo(Phe4Me-NMeA-3Pal-Nle-Phe2F-Nle-NMe3Pal-amBCP)] (cyclo([3Pal][Nle][Phe(2-F)][Nle][NMe3Pal][X1][Phe(4-Me)][NMeA])) | 91.1
7 | CCCCC[C@@H]1NC(=O)[C@H](Cc2ccc(O)cc2)NC(=O)[C@H](CCCC)NC(=O)[C@H](Cc2ccc(O)cc2)NC(=O)[C@H](CCCNC(=N)N)NC(=O)[C@H](Cc2ccccc2)NC(=O)CSC[C@@H](C(N)=O)NC(=O)[C@H](Cc2ccccc2)N(C)C1=O [compound 12, cyclo(F-R-Y-Nle-Y-Ahp-NMeF-Cl-ClAc)] ({CH2CO}-FRY[Nle]Y[Ahp(2)][NMeF]C-NH2; thioether N-8) | 1190
8 | CCCC[C@@H]1NC(=O)[C@H](Cc2cncnc2)NC(=O)[C@H](C)N(C)C(=O)[C@H](Cc2ccccc2)OC(=O)C23CC(CNC(=O)[C@H](Cc4ccccc4)N(C)C(=O)[C@H](CCCCF)NC(=O)[C@H](Cc4ccccc4F)NC1=O)(C2)C3 [compound 131, cyclo(FLac-NMeA-PyrimAla-Nle-Phe2F-NleF-NMeF-amBCP)] (cyclo([NMeA][Ala(pyrimidin-5-yl)][Nle][Phe(2-F)][X17][NMeF][X1][PhLac])) | 10.1
9 | CCC[C@@H]1NC(=O)[C@H](Cc2ccc(OC)cc2)NC(=O)[C@H](CC(C)C)NC(=O)[C@H](Cc2cccnc2)NC(=O)[C@H](CCCNC(=N)N)NC(=O)[C@H](Cc2ccc(F)cc2)NC(=O)CSCCNC(=O)[C@H](Cc2ccccc2)N(C)C1=O [compound 87, cyclo(Phe4F-R-3Pal-L-TyrOMe-Nva-NMeF-Cysteamine-ClAc)] (cyclo([3Pal]LY(Me)[Nva][NMeF][NHCH2CH2SCH2CO][Phe(4-F)]R)) | 1600
10 | CCCC[C@@H]1NC(=O)[C@H](Cc2ccn(C)n2)NC(=O)[C@H](C)N(C)C(=O)[C@H](Cc2ccccc2)OC(=O)C23CC(CNC(=O)[C@H](Cc4ccccc4)N(C)C(=O)[C@H](CCCC)NC(=O)[C@H](Cc4ccccc4F)NC1=O)(C2)C3 [compound 319, cyclo(FLac-NMeA-MePyzAla-Nle-Phe2F-Nle-NMeF-amBCP)] (cyclo([NMeA][X57][Nle][Phe(2-F)][Nle][NMeF][X1][PhLac])) | 5070
11 | CCCC[C@@H]1NC(=O)[C@H](Cc2ccccc2F)NC(=O)[C@H](CCN=[N+]=[N-])NC(=O)[C@H](Cc2cccnc2)NC(=O)[C@H](CCCC)N(C)C(=O)[C@H](Cc2ccccc2)OC(=O)C23CC(CNC(=O)[C@H](Cc4cccnc4)N(C)C1=O)(C2)C3 [compound 243, cyclo(FLac-NMeNle-3Pal-DabN3-Phe2F-Nle-NMe3Pal-amBCP)] (cyclo([3Pal][Aha][Phe(2-F)][Nle][NMe3Pal][X1][PhLac][NMeNle])) | 3060
12 | CON=C1C[C@@H](Cc2ccccc2)C(=O)N(C)[C@@H](C)C(=O)N[C@@H](Cc2cncnc2)C(=O)N[C@@H](CC2CC2)C(=O)N[C@@H](Cc2ccccc2F)C(=O)N[C@@H](CCC(C)(F)F)C(=O)N(C)[C@@H](Cc2ccccc2)C(=O)NCC23CC1(C2)C3 (single isomer, unassigned) [compound 177, cyclo(CPhe-NMeA-PyrimAla-cPrA-Phe2F-Nle3F2-NMeF-MeOximamBCP)] | 51
13 | CCCCC[C@@H]1NC(=O)[C@H](Cc2ccc(OC)cc2)NC(=O)[C@H](CC2CCC2)NC(=O)[C@H](Cc2ccc(NC(=N)N)cc2)NC(=O)CN(CCCNC(C)=O)C(=O)[C@H](Cc2ccccc2)NC(=O)CSC[C@@](C)(C(N)=O)NC(=O)[C@H](Cc2ccccc2)N(C)C1=O [compound 387, cyclo(F-AcApG-Phe4Gn-cBuA-TyrOMe-Ahp-NMcF-aMeCl-ClAc)] ({CH2CO}-F[X12][Phe(4-guanidino)][Cba]Y(Me)[Ahp(2)][NMeF][αMeC]-NH2; thioether N-8) | 164
14 | CCCC[C@@H]1NC(=O)[C@H](Cc2ccc(NC(=N)N)cc2)NC(=O)[C@H](CCCN(C)C(=N)NC)N(C)C(=O)[C@H](Cc2ccccc2)NC(=O)[C@H]2C[C@@H](CNC(=O)[C@H](Cc3ccccc3)N(C)C(=O)[C@H](CCCC)NC(=O)[C@H](Cc3ccc(OC)cc3)NC1=O)C2 [compound 384, cyclo(F-NMeArg1MeMe-Phe4Gn-Nle-TyrOMe-Nle-NMeF-c3amCblc)] (cyclo(F[X22][Phe(4-guanidino)][Nle]Y(Me)[Nle][NMeF][cBu(1-CO,cis-3-CH2NH)])) | 181
15 | CCCC[C@@H]1NC(=O)[C@H](Cc2cccnc2)NC(=O)[C@H](CCCNC(=N)N)NC(=O)[C@H](Cc2ccccc2)NC(=O)CSC[C@@](C)(C(N)=O)NC(=O)[C@H](Cc2ccccc2)N(C)C(=O)[C@H](CCCC)NC(=O)[C@H](Cc2ccccc2F)NC1=O [compound 160, cyclo(F-R-3Pal-Nle-Phe2F-Nle-NMeF-aMeCl-ClAc)] ({CH2CO}-FR[3Pal][Nle][Phe(2-F)][Nle][NMeF][αMeC]-NH2; thioether N-8) | 12.8
16 | CCCC[C@@H]1NC(=O)[C@H](Cc2cccnc2)NC(=O)[C@H](CCCNC(=N)N)NC(=O)[C@H](Cc2ccccc2)NC(=O)C2CCC(CC2)NC(=O)[C@H](Cc2ccccc2)N(C)C(=O)[C@H](CCCC)NC(=O)[C@H](Cc2ccc(OC)cc2)NC1=O [compound 201, cyclo(F-R-3Pal-Nle-TyrOMe-Nle-NMeF-cHxclacid4NH2)] (cyclo([3Pal][Nle]Y(Me)[Nle][NMeF][X79]FR)) | 256
17 | CCCC[C@@H]1NC(=O)[C@H](Cc2cccnc2)NC(=O)[C@H](CCCC(=O)N(C)C)N(C)C(=O)[C@H](Cc2ccccc2)OC(=O)C23CC(CNC(=O)[C@H](Cc4cccnc4)N(C)C(=O)[C@H](CCCC)NC(=O)[C@H](Cc4ccccc4F)NC1=O)(C2)C3 [compound 408, cyclo(FLac-hQdm-3Pal-Nle-Phe2F-Nle-NMe3Pal-amBCP)] (cyclo([3Pal][Nle][Phe(2-F)][Nle][NMe3Pal][X1][PhLac][NMeAad](NMe2))) | 161
18 | CCCC[C@@H]1NC(=O)[C@H](Cc2nccs2)NC(=O)[C@H](C)N(C)C(=O)[C@H](Cc2ccccc2)OC(=O)C23CC(CNC(=O)[C@H](Cc4ccccc4)N(C)C(=O)[C@H](CCCC)NC(=O)[C@H](Cc4ccccc4F)NC1=O)(C2)C3 [compound 320, cyclo(FLac-NMeA-2TzA-Nle-Phe2F-Nle-NMeF-amBCP)] (cyclo([NMeA][Ala(thiazol-2-yl)][Nle][Phe(2-F)][Nle][NMeF][X1][PhLac])) | 4360
19 | CCCC[C@@H]1NC(=O)[C@H](CCCCN)NC(=O)[C@H](CCCNC(=N)N)NC(=O)[C@H](Cc2cccc3ccccc23)NC(=O)CSCCNC(=O)[C@H](Cc2ccccc2)N(C)C(=O)[C@H](CCCC)NC(=O)[C@H](Cc2cccc(CC(=O)O)c2)NC1=O [compound 196, cyclo(INal-R-K-Nle-Phe3AcOH-Nle-NMeF-Cysteamine-ClAc)] (cyclo([1Nal]RK[Nle][X49][Nle][NMeF][NHCH2CH2SCH2CO])) | 2650
20 | CCC[C@@H]1NC(=O)[C@H](Cc2ccc(OC)cc2)NC(=O)[C@H](CC(C)C)NC(=O)[C@H](Cc2ccncc2)NC(=O)[C@H](CCCNC(=N)N)NC(=O)[C@H](Cc2ccc(F)cc2)NC(=O)CSC[C@H](C(=O)NCC(=O)NCC(=O)O)NC(=O)[C@H](Cc2ccccc2)N(C)C1=O [compound 66, cyclo(Phe4F-R-4Pal-L-TyrOMe-Nva-NMeF-dC6-ClAc)] ({CH2CO}-[Phe(4-F)]R[4Pal]LY(Me)[Nva][NMeF][dC]GG-OH; thioether N-8) | 369
21 | CCCC[C@@H]1NC(=O)[C@H](Cc2ccc(O)cc2)NC(=O)[C@H](CC(C)C)NC(=O)[C@H](Cc2ccc(O)cc2)NC(=O)[C@H](CCCNC(=N)N)NC(=O)[C@H](Cc2ccc(Cl)cc2)NC(=O)CSCCNC(=O)[C@H](Cc2ccccc2)N(C)C1=O [compound 74, cyclo(-Phe4Cl-R-Y-L-Y-Nle-NMeF-Cysteamine-ClAc)] (cyclo(LY[Nle][NMeF][NHCH2CH2SCH2CO][Phe(4-Cl)]RY)) | 7070
